Earlier results as cited in patent publication US9616098B2, “Formulations of vancomycin” (SCIDOSE, LLC, priority 2013, dated 2017).

CN[C@H](CC(C)C)C(=O)N[C@H]1C(=O)N[C@@H](CC(N)=O)C(=O)N[C@H]2C(=O)N[C@H]3C(=O)N[C@H](C(=O)N[C@H](C(=O)O)c4cc(O)cc(O)c4-c4cc3ccc4O)[C@H](O)c3ccc(c(Cl)c3)Oc3cc2cc(c3O[C@@H]2O[C@H](CO)[C@@H](O)[C@H](O)[C@H]2O[C@H]2C[C@](C)(N)[C@H](O)[C@H](C)O2)Oc2ccc(cc2Cl)[C@H]1O [Vancomycin]
stable in water after reconstitution: approximately 24 hours
